# In ChEMBL document CHEMBL4270552, “4-(Phenoxy) and 4-(benzyloxy)benzamides as potent and selective inhibitors of mono-ADP-ribosyltransferase PARP10/ARTD10” (Eur J Med Chem, 2018):
# What was measured:
# [1] = target: Poly [ADP-ribose] polymerase 1 (Homo sapiens, UniProt P09874); assay: Inhibition of N-terminal His-tagged human ARTD1 (1 to 1014 residues) expressed in Escherichia coli Rosetta2 (DE3) using activated DNA as substrate after 1.5 hrs in presence of NAD+
# [2] = target: Poly [ADP-ribose] polymerase 2 (Homo sapiens, UniProt Q9UGN5); assay: Inhibition of N-terminal His-tagged thioredoxin-fused human ARTD2 (1 to 583 residues) expressed in Escherichia coli Rosetta2 (DE3) using activated DNA as substrate after 1.5 hrs in presence of NAD+
# Sequence of Poly [ADP-ribose] polymerase 2 (Q9UGN5 whole entry, the tested form may be a part): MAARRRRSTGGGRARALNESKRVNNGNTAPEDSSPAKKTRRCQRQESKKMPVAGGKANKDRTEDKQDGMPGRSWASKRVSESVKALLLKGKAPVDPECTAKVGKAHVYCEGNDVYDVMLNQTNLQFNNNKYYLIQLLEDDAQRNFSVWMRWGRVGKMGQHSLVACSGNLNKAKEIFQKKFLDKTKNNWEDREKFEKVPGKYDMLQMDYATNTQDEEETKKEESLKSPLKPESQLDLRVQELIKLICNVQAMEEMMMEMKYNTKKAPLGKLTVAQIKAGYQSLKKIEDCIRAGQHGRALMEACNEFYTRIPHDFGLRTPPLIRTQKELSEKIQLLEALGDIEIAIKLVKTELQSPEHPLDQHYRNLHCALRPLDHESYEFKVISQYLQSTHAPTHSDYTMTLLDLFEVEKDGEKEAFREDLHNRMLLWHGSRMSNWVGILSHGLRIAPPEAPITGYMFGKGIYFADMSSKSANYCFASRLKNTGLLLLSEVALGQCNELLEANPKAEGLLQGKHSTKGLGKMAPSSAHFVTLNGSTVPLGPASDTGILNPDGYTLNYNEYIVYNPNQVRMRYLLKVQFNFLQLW
# [3] = target: T1, Protein mono-ADP-ribosyltransferase PARP3 (Homo sapiens, UniProt Q9Y6F1); assay: Inhibition of N-terminal His-tagged thioredoxin-fused human ARTD3 (1 to 533 residues) expressed in Escherichia coli Rosetta2 (DE3) using DNA as substrate after 3 hrs in presence of NAD+
# T1 sequence (Q9Y6F1 whole entry): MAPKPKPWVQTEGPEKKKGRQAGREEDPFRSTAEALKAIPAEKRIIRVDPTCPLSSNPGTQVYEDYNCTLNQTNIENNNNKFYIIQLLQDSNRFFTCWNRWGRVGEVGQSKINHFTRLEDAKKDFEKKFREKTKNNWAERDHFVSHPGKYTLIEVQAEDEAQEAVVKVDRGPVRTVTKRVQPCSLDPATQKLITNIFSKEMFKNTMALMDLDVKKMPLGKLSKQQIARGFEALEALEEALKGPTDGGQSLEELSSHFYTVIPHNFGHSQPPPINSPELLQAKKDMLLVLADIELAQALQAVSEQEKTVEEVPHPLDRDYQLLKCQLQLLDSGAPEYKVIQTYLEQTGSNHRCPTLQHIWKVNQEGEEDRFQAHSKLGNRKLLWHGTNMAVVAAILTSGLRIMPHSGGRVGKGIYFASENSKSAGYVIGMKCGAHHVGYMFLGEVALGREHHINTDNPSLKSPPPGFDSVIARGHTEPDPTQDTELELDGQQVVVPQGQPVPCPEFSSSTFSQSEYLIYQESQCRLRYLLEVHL
# [4] = target: T2, Poly [ADP-ribose] polymerase tankyrase-2 (Homo sapiens, UniProt Q9H2K2); assay: Inhibition of N-terminal His-tagged Z-basic-fused human ARTD6 (873 to 1161 residues) expressed in Escherichia coli Rosetta2 (DE3) using TCEP as substrate after 18 hrs in presence of NAD+
# T2 sequence (Q9H2K2 whole entry): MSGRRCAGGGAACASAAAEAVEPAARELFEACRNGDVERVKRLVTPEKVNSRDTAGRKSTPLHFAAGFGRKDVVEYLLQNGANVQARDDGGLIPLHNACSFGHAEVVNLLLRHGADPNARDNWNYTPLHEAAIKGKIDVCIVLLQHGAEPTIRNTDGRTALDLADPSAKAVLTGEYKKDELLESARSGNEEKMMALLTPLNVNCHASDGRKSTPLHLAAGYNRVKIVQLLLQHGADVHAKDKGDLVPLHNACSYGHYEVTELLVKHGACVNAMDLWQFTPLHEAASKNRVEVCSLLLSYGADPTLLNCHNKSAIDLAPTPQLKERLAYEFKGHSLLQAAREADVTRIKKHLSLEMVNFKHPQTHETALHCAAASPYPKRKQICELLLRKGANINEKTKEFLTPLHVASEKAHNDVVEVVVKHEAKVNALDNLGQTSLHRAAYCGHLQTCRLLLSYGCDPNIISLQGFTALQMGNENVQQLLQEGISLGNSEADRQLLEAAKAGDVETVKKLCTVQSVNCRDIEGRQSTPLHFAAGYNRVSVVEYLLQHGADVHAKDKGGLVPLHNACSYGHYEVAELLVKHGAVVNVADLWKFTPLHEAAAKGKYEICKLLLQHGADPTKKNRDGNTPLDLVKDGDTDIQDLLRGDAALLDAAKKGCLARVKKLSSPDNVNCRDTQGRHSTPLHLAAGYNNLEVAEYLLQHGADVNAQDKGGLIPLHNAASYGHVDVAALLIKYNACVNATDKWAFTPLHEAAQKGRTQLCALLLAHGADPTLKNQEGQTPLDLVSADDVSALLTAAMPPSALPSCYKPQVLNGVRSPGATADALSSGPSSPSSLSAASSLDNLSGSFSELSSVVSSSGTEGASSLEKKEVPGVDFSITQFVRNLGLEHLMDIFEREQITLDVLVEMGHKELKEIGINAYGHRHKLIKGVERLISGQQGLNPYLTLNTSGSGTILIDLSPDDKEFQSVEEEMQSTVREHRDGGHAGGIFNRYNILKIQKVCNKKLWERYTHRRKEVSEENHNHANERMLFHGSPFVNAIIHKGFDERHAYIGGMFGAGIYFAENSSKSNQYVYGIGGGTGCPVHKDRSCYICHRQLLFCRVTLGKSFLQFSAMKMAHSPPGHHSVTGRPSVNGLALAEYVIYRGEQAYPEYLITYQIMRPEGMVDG
# [5] = target: T3, Protein mono-ADP-ribosyltransferase PARP12 (Homo sapiens, UniProt Q9H0J9); assay: Inhibition of N-terminal His-tagged thioredoxin-fused human ARTD12 (469 to 701 residues) expressed in Escherichia coli Rosetta2 (DE3) after 20 hrs in presence of NAD+
# T3 sequence (Q9H0J9 whole entry): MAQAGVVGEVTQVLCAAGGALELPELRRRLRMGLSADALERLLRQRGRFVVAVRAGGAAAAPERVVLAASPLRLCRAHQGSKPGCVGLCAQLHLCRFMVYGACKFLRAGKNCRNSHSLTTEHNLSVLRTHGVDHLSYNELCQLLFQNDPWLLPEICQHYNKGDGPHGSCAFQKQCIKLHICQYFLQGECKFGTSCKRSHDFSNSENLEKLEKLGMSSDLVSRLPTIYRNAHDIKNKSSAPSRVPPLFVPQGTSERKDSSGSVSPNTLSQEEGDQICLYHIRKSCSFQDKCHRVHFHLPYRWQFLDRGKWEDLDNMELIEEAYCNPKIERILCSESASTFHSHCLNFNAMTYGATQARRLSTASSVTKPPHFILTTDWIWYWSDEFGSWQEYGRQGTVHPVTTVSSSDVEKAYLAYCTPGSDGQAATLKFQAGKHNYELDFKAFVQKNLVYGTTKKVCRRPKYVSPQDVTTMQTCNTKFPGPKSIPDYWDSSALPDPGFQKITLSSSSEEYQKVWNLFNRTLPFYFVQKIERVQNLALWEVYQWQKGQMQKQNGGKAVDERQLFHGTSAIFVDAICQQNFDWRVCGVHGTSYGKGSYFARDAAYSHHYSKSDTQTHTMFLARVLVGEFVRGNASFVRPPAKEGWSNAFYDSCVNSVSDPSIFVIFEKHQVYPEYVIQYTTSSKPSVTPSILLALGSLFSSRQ
# [6] = target: Zinc finger CCCH-type antiviral protein 1 (Homo sapiens) (UniProt Q7Z2W4)
# Sequence of Zinc finger CCCH-type antiviral protein 1 (Homo sapiens) (Q7Z2W4 whole entry): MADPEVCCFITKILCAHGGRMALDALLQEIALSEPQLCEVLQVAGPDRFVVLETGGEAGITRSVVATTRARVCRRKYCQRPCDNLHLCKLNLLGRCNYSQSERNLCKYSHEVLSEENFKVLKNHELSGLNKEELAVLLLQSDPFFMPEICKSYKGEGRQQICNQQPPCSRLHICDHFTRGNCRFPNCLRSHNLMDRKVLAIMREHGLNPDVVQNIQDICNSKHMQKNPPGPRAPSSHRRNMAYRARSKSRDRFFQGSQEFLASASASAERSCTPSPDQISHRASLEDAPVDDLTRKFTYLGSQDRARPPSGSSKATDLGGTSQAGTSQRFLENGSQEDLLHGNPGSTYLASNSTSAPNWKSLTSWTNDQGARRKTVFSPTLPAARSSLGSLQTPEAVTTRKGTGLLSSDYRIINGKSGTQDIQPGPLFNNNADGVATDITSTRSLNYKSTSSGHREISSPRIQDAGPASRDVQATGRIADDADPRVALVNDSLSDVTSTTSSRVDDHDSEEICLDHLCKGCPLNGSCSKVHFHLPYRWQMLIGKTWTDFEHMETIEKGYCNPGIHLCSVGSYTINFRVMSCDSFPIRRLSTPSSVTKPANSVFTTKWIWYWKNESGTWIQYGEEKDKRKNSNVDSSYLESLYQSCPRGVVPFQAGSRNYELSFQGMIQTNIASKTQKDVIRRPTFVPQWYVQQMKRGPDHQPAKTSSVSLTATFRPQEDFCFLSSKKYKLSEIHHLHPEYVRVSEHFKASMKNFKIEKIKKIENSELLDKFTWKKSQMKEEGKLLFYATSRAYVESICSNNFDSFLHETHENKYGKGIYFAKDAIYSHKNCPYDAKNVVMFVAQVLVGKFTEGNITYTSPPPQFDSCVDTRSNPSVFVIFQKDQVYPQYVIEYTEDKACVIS
# Description: Stabilization of human ARTD13 expressed in Escherichia coli assessed as change in melting temperature at 100 uM by SYPRO Orange-dye based differential scanning fluorimetric method
# Sequence of Poly [ADP-ribose] polymerase 1 (P09874 whole entry, the tested form may be a part): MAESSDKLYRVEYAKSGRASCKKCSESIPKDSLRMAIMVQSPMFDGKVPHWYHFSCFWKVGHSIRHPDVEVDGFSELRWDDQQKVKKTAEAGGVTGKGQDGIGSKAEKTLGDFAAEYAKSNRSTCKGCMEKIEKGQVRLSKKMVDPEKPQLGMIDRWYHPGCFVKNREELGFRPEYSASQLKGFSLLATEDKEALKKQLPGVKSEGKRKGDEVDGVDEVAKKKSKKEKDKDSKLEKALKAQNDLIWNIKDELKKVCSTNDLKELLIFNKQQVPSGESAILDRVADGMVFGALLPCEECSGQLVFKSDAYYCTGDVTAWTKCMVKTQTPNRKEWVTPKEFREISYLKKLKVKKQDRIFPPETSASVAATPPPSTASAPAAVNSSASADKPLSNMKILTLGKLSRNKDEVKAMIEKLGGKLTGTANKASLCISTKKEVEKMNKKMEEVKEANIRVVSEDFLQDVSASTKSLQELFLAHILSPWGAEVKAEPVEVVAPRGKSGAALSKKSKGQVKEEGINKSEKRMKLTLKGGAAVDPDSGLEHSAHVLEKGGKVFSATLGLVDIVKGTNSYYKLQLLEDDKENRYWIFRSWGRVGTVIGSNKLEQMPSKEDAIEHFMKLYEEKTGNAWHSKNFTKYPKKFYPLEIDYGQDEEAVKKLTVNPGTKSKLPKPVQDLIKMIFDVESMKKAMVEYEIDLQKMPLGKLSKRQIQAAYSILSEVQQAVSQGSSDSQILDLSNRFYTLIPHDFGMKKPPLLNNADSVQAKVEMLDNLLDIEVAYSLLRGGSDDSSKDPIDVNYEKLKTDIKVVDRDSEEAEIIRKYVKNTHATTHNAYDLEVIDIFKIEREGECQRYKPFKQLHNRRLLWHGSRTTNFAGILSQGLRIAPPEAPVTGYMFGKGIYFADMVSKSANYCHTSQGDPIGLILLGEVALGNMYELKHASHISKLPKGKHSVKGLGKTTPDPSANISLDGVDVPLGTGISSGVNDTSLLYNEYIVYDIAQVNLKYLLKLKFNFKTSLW
SMILES,IC50 [1],IC50 [2],IC50 [3],IC50 [4],IC50 [5],ΔTm [6]
NC(=O)c1ccc(OCc2ccccc2F)cc1,> 100 µM,> 100 µM,> 100 µM,> 100 µM,> 10 µM,0.37 °C
NC(=O)c1ccc(Oc2ccc(C=O)cc2)cc1,> 100 µM,> 100 µM,86 µM,> 100 µM,> 10 µM,0.49 °C
COc1ccc(C(N)=O)cc1,57 µM,77 µM,> 100 µM,> 100 µM,> 10 µM,0.44 °C
NC(=O)c1ccc(Oc2ccc(C(=O)O)cc2)cc1,> 100 µM,> 100 µM,> 100 µM,> 100 µM,> 10 µM,0.72 °C
